The values below come from patent US20210348119A1, “COMPOSITIONS AND METHODS FOR CELL CULTURE” (The United States of America as Represented By The …, priority 2018, published 2021).

This test relates to H9 cells. Put plainly: qHTS for survival of dissociated H9 cells (CellTiter-Glo, 24 hours after seeding). Format: cell-based, human. The following applies: for AC50: CellTiter-Glo 24 hours after seeding, read-out: AC50 (concentration at 50% efficacy). From the text: FIG. 2 schematically illustrates qHTS procedure.
All the screed compounds were received pre-plated at the pre-determined concentrations. […] Curve classification is explained in Huang et al. “Chemical genomics profiling of environmental chemical modulation of human nuclear receptors” Environ. Health. Perspect.
(qHTS replaces the single test concentration by a dilution series.)

[1] abbreviates: H9 cell survival normalized to 10 μM Y-27632 (taken to be 100%).
Setting [2] is: H9 cell survival, normalized to 10 μM Y-27632.
Setting [3] is: Homo sapiens, H9, 24 h, H9 cell survival normalized to 10 μM Y-27632 (taken to be 100%), read-out: Max (maximum activity value from all tested concentrations).
[4] abbreviates: Homo sapiens, H9, 24 h, H9 cell survival, normalized to 10 μM Y-27632, read-out: Efficacy (activity range between predicted activities at zero and infinite doses, Hill equation).
The mark [5] stands for this setting: Homo sapiens, H9, 24 h, H9 cell survival.
[6] abbreviates: Homo sapiens, H9, 24 h, read-out: Efficacy (activity range between predicted activities at zero and infinite doses, Hill equation).
The mark [7] stands for this setting: Homo sapiens, H9, 24 h, read-out: Max (maximum activity value from all tested concentrations).

Where “and” joins values, the source holds several entries; their conditions need not be identical. Equal entries are not always repeated. Where two headings read alike, the source gives them in different places.

As for `Cl.NC(N)=NCCNS(=O)(=O)c1cccc2cnccc12` [HA-1004 hydrochloride], the “Max (maximum activity value from all tested concentrations)” value under setting [1] was found to be 50.05%. The AC50 (H9 cell survival) was determined as 5.17 µM. The “Efficacy (activity range between predicted activities at zero and infinite doses, Hill equation)” value under setting [2] is listed as 50.
Taken in the same sequence, the figures for `C[C@@H]1O[C@@H](OC2C(O[C@H]3[C@H](O[C@H]4CC[C@@]5(C)C(CC[C@]6(C)C5CC=C5C7CC(C)(C)CC(O)[C@]7(C)CC[C@]56C)C4(C)C)O[C@H](C(=O)O)[C@@H](O)[C@@H]3O)OC(CO)C(O)C2O)[C@H](O)[C@H](O)[C@H]1O` (some centres unmarked) [NCGC00381003-01] were 22.06%, 2.48 µM and 24.5.
Taken in the same sequence, the figures for `COc1ccccc1-c1c[nH]c2ncc(-c3cncc(C(=O)N(C)C)c3)cc12` [PPY A] were 37.42%, 2.93 µM and 41.9.
For `NS(=O)(=O)c1ccc(Nc2nc(OCC3CCCCC3)c3[nH]cnc3n2)cc1` [NU-6102], the “Max (maximum activity value from all tested concentrations)” value under setting [1] is 46.11% and 34.8%. Also, under setting [2], the “Efficacy (activity range between predicted activities at zero and infinite doses, Hill equation)” value is 57.9 and 43.8.
As to `CCC(=O)N1CCN(c2ccc(-n3c(=O)ccc4cnc5ccc(-c6cnc7ccccc7c6)cc5c43)cc2C(F)(F)F)CC1` [Torin-1], the “Max (maximum activity value from all tested concentrations)” value under setting [1] is recorded as 27.66%. The AC50 (H9 cell survival) amounted to 10.5 µM. Under setting [2], the “Efficacy (activity range between predicted activities at zero and infinite doses, Hill equation)” value is reported as 31.2.
For the compound `Clc1ccc(C2(c3ccc(-c4cn[nH]c4)cc3)CCNCC2)cc1` [AT-7867], the “Max (maximum activity value from all tested concentrations)” value under setting [1] was 119.5% and 118.4%. Besides, the “Efficacy (activity range between predicted activities at zero and infinite doses, Hill equation)” value under setting [2] was 92.2 and 104.
As to `COCCOc1ccc2c(c1)ncn2-c1ccc2cccc(N3CCC(N)CC3)c2n1` [CP-673451], the Emax under setting [3] was determined as 35.6% and the Emax under setting [4] is 0%.
In the case of `C[C@H]1[C@H](C)CC[C@]2(C(=O)O)CC[C@]3(C)C(=CC[C@@H]4[C@@]5(C)CC[C@H](O)C(C)(C)[C@@H]5CC[C@]43C)[C@H]12` [URSOLIC ACID], the Emax is 22.3% under setting [3] and 11.7% under setting [4]. For the same compound, the AC50 under setting [5] was 0.521 µM.
Take `CCS(=O)(=O)N1CCN(c2ccc(Nc3ncc(C(N)=O)c(NC4CC4)n3)cc2)CC1` [Cerdulatinib]: the Emax was 39% under setting [3] and 33.6% under setting [4]. In addition, the AC50 under setting [5] was determined as 2.93 µM.
In the case of `Cc1cnc(Nc2ccc(OCCN3CCCC3)cc2)nc1Nc1cccc(S(=O)(=O)NC(C)(C)C)c1` [TG-101348], the Emax reads like this: under setting [3], 55.1%; under setting [4], 67.3%. In addition, the AC50 under setting [5] amounted to 33.2 µM.
For `Cc1c[nH]c2ncnc(N3CCC(CN)(C(=O)Nc4cccc(OC(=O)N(C)C)c4)CC3)c12` [LX-7101], the Emax was 21.6% under setting [6] and 53.7% under setting [7]. Also, for the setting “Homo sapiens, H9 cell survival”, the AC50 turned out to be 2.33 µM.
With `CNc1nccc(-c2cccnc2Oc2cc(C(=O)Nc3cccc(C(F)(F)F)c3)ccc2C)n1` [AMG-Tie2-1], the “Max (maximum activity value from all tested concentrations)” value under setting [1] is 57.84%. The AC50 (H9 cell survival) was determined as 18.7 µM. Moreover, the “Efficacy (activity range between predicted activities at zero and infinite doses, Hill equation)” value under setting [2] is reported as 54.5.
As to `NC[C@@](O)(c1ccc(Cl)cc1)c1ccc(-c2cn[nH]c2)cc1` [AT-13148], the Emax by setting is: under setting [3], 89.8%; under setting [4], 64.5%. The AC50 under setting [5] was determined as 0.104 µM.
Taken in the same sequence, the figures for `COc1cccc(CNC(=O)Nc2nc(-c3ccncc3)cs2)c1` [1-(3-methoxybenzyl)-3-(4-(pyridin-4-yl)thiazol-2-yl)urea] were 124%, 121% and 0.147 µM.
Consider `O=C1NC(=O)C(=O)C(=O)N1` [ALLOXAN], for which the Emax was 27.2% under setting [6] and 22.4% under setting [7]. Moreover, for the setting “Homo sapiens, H9 cell survival”, the AC50 was determined as 5.21 µM.
Regarding `Cn1c2ccccc2c2c3c(c4c5ccccc5n(CCC#N)c4c21)CNC3=O` [Go-6976], the Emax under setting [3] worked out at 49.1% and the Emax under setting [4] was 37.3%. The AC50 under setting [5] came to 4.69 µM.
On to `O=C(O)Cc1cc(I)c(Oc2cc(I)c(O)c(I)c2)c(I)c1` [TETRAC], for which the Emax by setting is: under setting [3], 34.2%; under setting [4], 35.8%. For the same compound, the AC50 under setting [5] turned out to be 14.7 µM.
Take `Cc1cc(Nc2cc(NC(=O)c3c(Cl)cccc3Cl)ccn2)nc(N)n1` [RO495]: under setting [1], the “Max (maximum activity value from all tested concentrations)” value stood at 89.28%. For the same compound, the AC50 (H9 cell survival) was determined as 4.69 µM. Besides, the “Efficacy (activity range between predicted activities at zero and infinite doses, Hill equation)” value under setting [2] is on record as 73.1.
In the case of `Nc1nc2nc[nH]c2c(=S)[nH]1` [Tioguanine], the Emax was 21.3% under setting [3] and 0% under setting [4].
As to `Brc1c(Br)c(Br)c2n[nH]nc2c1Br` [TBB], the “Max (maximum activity value from all tested concentrations)” value under setting [1] was 28.55%. In addition, the AC50 (H9 cell survival) was found to be 32.6 µM. The “Efficacy (activity range between predicted activities at zero and infinite doses, Hill equation)” value under setting [2] is on record as 33.7.
For the compound `O=C(c1ccc(/C=C/c2n[nH]c3ccccc23)cc1)N1CCNCC1` [KW-2449], the Emax reads like this: under setting [3], 40%; under setting [4], 44.5%. The AC50 under setting [5] is 33.2 µM.
Regarding `N#Cc1cc(F)cc(-c2nc(-c3ccccn3)no2)c1` [VU 0285683], the “Max (maximum activity value from all tested concentrations)” value under setting [1] is listed as 21.28%. The “Efficacy (activity range between predicted activities at zero and infinite doses, Hill equation)” value under setting [2] is listed as 0.
For the compound `CC1=C(C(=O)Nc2cc3cn[nH]c3cc2F)C(c2ccc(Cl)cc2F)N=C(c2ccnc(Cl)c2)N1` (centres unmarked) [GSK-25], under setting [1], the “Max (maximum activity value from all tested concentrations)” value was 121.1% and 113.3%. The “Efficacy (activity range between predicted activities at zero and infinite doses, Hill equation)” value under setting [2] is 118 and 113.
Take `CCCC1(C)C(C#N)(C#N)C1(C#N)C#N` [CCG-2046]: the “Max (maximum activity value from all tested concentrations)” value under setting [1] worked out at 21.78%. Moreover, under “H9 cell survival”, the AC50 is 20.6 µM. Besides, the “Efficacy (activity range between predicted activities at zero and infinite doses, Hill equation)” value under setting [2] is 23.7.
With `CNc1ccc([N+](=O)[O-])c(Nc2ccc3[nH]ncc3c2)n1` [KRIBB11], the “Max (maximum activity value from all tested concentrations)” value under setting [1] is 72.62%. The AC50 (H9 cell survival) amounted to 0.585 µM. The “Efficacy (activity range between predicted activities at zero and infinite doses, Hill equation)” value under setting [2] is on record as 62.1.
Turning to `CN(C)CCOc1cc(-c2cn[nH]c2)ccc1NC(=O)C1COc2ccccc2O1` (centres unmarked) [SR-3677], the AC50 stood at 0.662 µM (H9 cell survival) and 0.585 µM under setting [5]. For the same compound, the Emax is 122% under setting [3] and 118% under setting [4].
Turning to `c1ccc2c3c([nH]c2c1)CNCC3` [tryptoline], the Emax was 27.9% under setting [3] and -33.1% under setting [4]. In addition, under setting [5], the AC50 was 0.0009 µM.
For `CNS(=O)(=O)C[C@H]1CC[C@H](N(C)c2ncnc3[nH]ccc23)CC1` [Oclacitinib (PF-03394197), Oclacitinib] the same measures were 93.8%, 99.9% and 20.8 µM.
Taken in the same sequence, the figures for `COCC(=O)NC/C=C/c1ccc2ncnc(Nc3ccc(Oc4ccc(C)nc4)c(C)c3)c2c1` [CP-724714] were 21.2%, 23.5% and 20.8 µM.
As for `Cc1cc2c(cc1CC(=O)c1sccc1S(=O)(=O)[N-]c1onc(C)c1Cl)OCO2.[Na+]` [Sitaxenian sodium], under setting [1], the “Max (maximum activity value from all tested concentrations)” value turned out to be 21.69%. Moreover, under “H9 cell survival”, the AC50 turned out to be 26.1 µM. Also, under setting [2], the “Efficacy (activity range between predicted activities at zero and infinite doses, Hill equation)” value is 27.1.
In the case of `CC1(C)CC[C@]2(C(=O)O)CC[C@]3(C)C(=CC[C@@H]4[C@@]5(C)CC[C@H](O)C(C)(C)[C@@H]5CC[C@]43C)[C@@H]2C1` [Oleanolic acid], the Emax is, setting by setting: under setting [3], 20.3%; under setting [4], -10.7%. Also, under setting [5], the AC50 was 0.37 µM.
With `CN1CCN(c2cccc(Nc3nc4c(-c5ccc(S(C)(=O)=O)cc5)cccn4n3)c2)CC1` [CEP-33779], under setting [1], the “Max (maximum activity value from all tested concentrations)” value is on record as 27.79%. Also, the AC50 (H9 cell survival) amounted to 5.9 µM. For the same compound, the “Efficacy (activity range between predicted activities at zero and infinite doses, Hill equation)” value under setting [2] was 25.5.
With `Cc1cncc2cccc(S(=O)(=O)N3CCCN(C(=O)CN)C[C@@H]3C)c12` [Glycyl-H-1152], the Emax under setting [3] turned out to be 121%.
Take `O=S(=O)(NCC1CC1)c1ccc(Nc2nccc(N3CCCc4cc(O)ccc43)n2)cc1` [Pyrintegrin]: the “Max (maximum activity value from all tested concentrations)” value under setting [1] is reported as 27.85%. For the same compound, the AC50 (H9 cell survival) is 3.29 µM. Also, the “Efficacy (activity range between predicted activities at zero and infinite doses, Hill equation)” value under setting [2] is 31.
Taken in the same sequence, the figures for `C[C@@H]1O[C@@H](O[C@H]2[C@H](O[C@H]3[C@H](O[C@H]4CC[C@@]5(C)C(CC[C@]6(C)C5CC=C5[C@@H]7CC(C)(C(=O)O)C[C@@H](O)[C@]7(C)CC[C@]56C)[C@@]4(C)CO)O[C@H](C(=O)O)[C@@H](O)[C@@H]3O)O[C@H](CO)[C@H](O)[C@@H]2O)[C@H](O)[C@H](O)[C@H]1O` (some centres unmarked) [NCGC00385739-01] were 23.02%, 3.13 µM and 24.5.
For `COc1ccc2c(c1O)OC[C@H]1c3ccc(O)cc3O[C@@H]21` [NCGC00384860-01] the same measures were 22.82%, 18.5 µM and 29.1.
For `CC1=C(C(=O)Nc2cc3cn[nH]c3cc2F)C(c2ccc(C(F)(F)F)cc2)CC(=O)N1` (centres unmarked) [GSK-429286A] the same measures were 129.3%, 3.32 µM and 126.
